ChEMBL document CHEMBL5042524, “Discovery of Novel Histone Deacetylase 6 (HDAC6) Inhibitors with Enhanced Antitumor Immunity of Anti-PD-L1 Immunotherapy in Melanoma” (J Med Chem, 2022)
Calls of active or inactive are those of the source. No cut-off for these calls is given here.

Tests used:
Histone deacetylase = assay: Inhibition of HDAC in human HeLa nuclear extracts using fluorometric substrate incubated for 30 mins by fluorescence plate reader analysis; assay type: cell-based
Histone deacetylase 1 = Histone deacetylase 1 (Homo sapiens, UniProt Q13547); assay: Inhibition of recombinant human HDAC1 expressed in baculovirus expression system using Ac-Leu-Gly-Lys (Ac)-AMC as substrate preincubated for 5 mins followed by substrate addition and measured after 30 mins by fluorescence microtiter plate reader assay
Histone deacetylase 3 = Histone deacetylase 3 (Homo sapiens, UniProt O15379); assay: Inhibition of recombinant human His-tagged HDAC3 expressed in baculovirus insect cells using Ac-Leu-Gly-Lys (Ac)-AMC as substrate preincubated for 5 mins followed by substrate addition and measured after 30 mins by fluorescence microtiter plate reader assay
Histone deacetylase 8 = molecular target: T1, Histone deacetylase 8 (Homo sapiens, UniProt Q9BY41); assay: Inhibition of full length recombinant human C-terminal His tagged HDAC8 expressed in baculovirus infected Sf9 insect cells using Ac-Leu-GlyLys (Tfa)-AMC as substrate preincubated for 5 mins followed by substrate addition and measured after 30 mins by fluorescence microtiter plate reader assay
T1 sequence (Q9BY41 whole entry): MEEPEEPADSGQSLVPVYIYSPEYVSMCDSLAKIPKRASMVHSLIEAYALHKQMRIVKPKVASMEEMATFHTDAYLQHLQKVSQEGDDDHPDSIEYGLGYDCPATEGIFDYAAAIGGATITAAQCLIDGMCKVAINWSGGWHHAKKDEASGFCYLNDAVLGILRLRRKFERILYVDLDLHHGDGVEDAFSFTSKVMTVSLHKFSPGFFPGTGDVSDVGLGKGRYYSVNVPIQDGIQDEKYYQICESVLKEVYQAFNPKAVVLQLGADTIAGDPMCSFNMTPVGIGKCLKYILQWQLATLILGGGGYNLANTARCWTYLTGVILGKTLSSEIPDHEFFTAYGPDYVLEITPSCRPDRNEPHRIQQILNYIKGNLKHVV

HCT-116 = assay: cells; assay type: functional, cell-based; conditions: Homo sapiens, HCT-116, 48 h
Description: Antiproliferative activity against human HCT-116 cells assessed as inhibition of cell proliferation measured after 48 hrs by MTT assay

A549 = assay: cells; assay type: functional, cell-based; conditions: Homo sapiens, A549, 48 h
Description: Antiproliferative activity against human A549 cells assessed as inhibition of cell proliferation measured after 48 hrs by MTT assay

MCF7 = assay: cells; assay type: functional, cell-based; conditions: Homo sapiens, MCF7, 48 h
Description: Antiproliferative activity against human MCF7 cells assessed as inhibition of cell proliferation measured after 48 hrs by MTT assay

B16-F10 [1] = assay: cells; assay type: functional, cell-based; conditions: Mus musculus, B16-F10, 48 h
Description: Antiproliferative activity against mouse B16-F10 cells assessed as inhibition of cell proliferation measured after 48 hrs by MTT assay

[2] = Antiproliferative activity against human YCC-11 cells assessed as cell growth inhibition; assay type: functional, cell-based
[3] = Antiproliferative activity against human YCC3/7 cells assessed as cell growth inhibition; assay type: functional, cell-based
B16-F10 [4] = assay: Induction of apoptosis in mouse B16-F10 cells assessed as increase in apoptotic cells at 0.1 uM incubated for 48 hrs by Annexin V-FITC/PI staining based flow cytometry analysis relative to control; assay type: functional
B16-F10 [5] = assay: Induction of apoptosis in mouse B16-F10 cells assessed as increase in apoptotic cells at 0.5 uM incubated for 48 hrs by Annexin V-FITC/PI staining based flow cytometry analysis relative to control; assay type: functional
B16-F10 [6] = assay: Induction of apoptosis in mouse B16-F10 cells assessed as increase in apoptotic cells at 1 uM incubated for 48 hrs by Annexin V-FITC/PI staining based flow cytometry analysis relative to control; assay type: functional
Jurkat [7] = assay: Induction of apoptosis in human Jurkat T cells assessed as increase in Bax protein expression at 0.2 to 2 uM measured after 6 hrs by Western blot analysis; assay type: functional, cell-based; conditions: dose 0.2-2 µM
Jurkat [8] = assay: Induction of apoptosis in human Jurkat T cells assessed as upregulation of acetylated Ku70 expression measured after 6 hrs by Western blot analysis; assay type: functional, cell-based; conditions: dose 0.2-2 µM
Jurkat [9] = assay: Induction of apoptosis in human Jurkat cells assessed as upregulation of Ku70 expression at 0.2 to 2 uM measured after 24 hrs by Western blot analysis; assay type: functional, cell-based; conditions: dose 0.2-2 µM
Jurkat [10] = assay: Induction of apoptosis in human Jurkat T cells assessed as downregulation of Bcl-2 expression at 0.2 to 2 uM incubated for 6 hrs by Western blot analysis; assay type: functional, cell-based; conditions: dose 0.2-2 µM
Jurkat [11] = assay: Upregulation of acetylated alpha-tubulin expression in human Jurkat T cells incubated for 6 hrs by Western blot analysis; assay type: functional, cell-based; conditions: dose 0.1-2 µM
B16-F10 [12] = assay: Upregulation of alpha-tubulin expression in mouse B16-F10 cells at 0.1 to 2 uM incubated for 6 hrs by Western blot analysis; assay type: functional, cell-based; conditions: dose 0.1-2 µM
Jurkat [13] = assay: Upregulation of alpha-tubulin expression in human Jurkat T cells at 0.1 to 2 uM incubated for 6 hrs by Western blot analysis; assay type: functional, cell-based; conditions: dose 0.1-2 µM
B16-F10 [14] = assay: Effect on acetyl-SMC3 expression level in mouse B16-F10 cells at 1 to 8 uM incubated for 6 hrs by Western blot analysis; assay type: functional, cell-based; conditions: dose 1-8 µM
B16-F10 [15] = assay: Effect on acetyl-SMC3 expression level in mouse B16-F10 cells at 1 to 4 uM incubated for 6 hrs by Western blot analysis; assay type: functional, cell-based; conditions: dose 1-4 µM
Jurkat [16] = assay: Effect on acetyl-SMC3 expression level in human Jurkat T cells at 0.1 to 0.8 uM incubated for 6 hrs by Western blot analysis; assay type: functional, cell-based; conditions: dose 0.1-0.8 µM
Jurkat [17] = assay: Effect on acetyl-SMC3 expression level in human Jurkat T cells at 0.1 to 0.4 uM incubated for 6 hrs by Western blot analysis; assay type: functional, cell-based; conditions: dose 0.1-0.4 µM
Jurkat [18] = assay: Effect on acetyl-H3 expression level in human Jurkat T cells at 0.1 to 0.8 uM incubated for 6 hrs by Western blot analysis; assay type: functional, cell-based; conditions: dose 0.1-0.8 µM
Jurkat [19] = assay: Effect on acetyl-H3 expression level in human Jurkat T cells at 0.1 to 0.4 uM incubated for 6 hrs by Western blot analysis; assay type: functional, cell-based; conditions: dose 0.1-0.4 µM
B16-F10 [20] = assay: Effect on acetyl-H3 expression level in mouse B16-F10 cells at 1 to 8 uM incubated for 6 hrs by Western blot analysis; assay type: functional, cell-based; conditions: dose 1-8 µM
B16-F10 [21] = assay: Effect on acetyl-H3 expression level in mouse B16-F10 cells at 1 to 4 uM incubated for 6 hrs by Western blot analysis; assay type: functional, cell-based; conditions: dose 1-4 µM

Chain of Histone deacetylase 1 (Q13547 whole entry): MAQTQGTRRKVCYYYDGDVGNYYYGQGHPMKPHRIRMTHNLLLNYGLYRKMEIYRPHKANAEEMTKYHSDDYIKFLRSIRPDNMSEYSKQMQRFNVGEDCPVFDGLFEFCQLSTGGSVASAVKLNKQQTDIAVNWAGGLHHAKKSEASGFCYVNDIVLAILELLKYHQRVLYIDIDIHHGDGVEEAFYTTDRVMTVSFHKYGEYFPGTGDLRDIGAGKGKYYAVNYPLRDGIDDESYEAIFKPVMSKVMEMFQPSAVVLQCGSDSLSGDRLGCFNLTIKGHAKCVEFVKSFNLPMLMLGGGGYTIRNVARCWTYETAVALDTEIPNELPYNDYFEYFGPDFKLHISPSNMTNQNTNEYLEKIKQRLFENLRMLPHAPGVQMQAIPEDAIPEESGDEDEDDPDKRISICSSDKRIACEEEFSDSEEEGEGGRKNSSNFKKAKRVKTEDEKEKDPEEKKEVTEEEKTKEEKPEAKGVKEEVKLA
Chain of Histone deacetylase 3 (O15379 whole entry): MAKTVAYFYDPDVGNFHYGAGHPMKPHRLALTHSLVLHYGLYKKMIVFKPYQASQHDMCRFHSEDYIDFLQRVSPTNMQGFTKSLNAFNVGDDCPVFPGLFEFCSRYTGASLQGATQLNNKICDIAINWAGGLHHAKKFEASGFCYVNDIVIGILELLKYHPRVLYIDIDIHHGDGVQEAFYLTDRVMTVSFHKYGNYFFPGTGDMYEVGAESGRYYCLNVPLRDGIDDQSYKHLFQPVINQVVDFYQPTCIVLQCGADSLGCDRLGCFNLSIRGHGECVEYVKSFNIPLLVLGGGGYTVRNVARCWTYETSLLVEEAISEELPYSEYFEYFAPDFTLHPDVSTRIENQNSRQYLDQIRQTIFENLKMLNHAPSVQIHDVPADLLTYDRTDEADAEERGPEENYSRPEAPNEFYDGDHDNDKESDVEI

SMILES: COc1ccc(-c2ncc(C(=O)NCCCCCCC(=O)NO)s2)c(OC)c1
- IC50 (Histone deacetylase): 40 nM
- IC50 (Histone deacetylase 1): 3190 nM
- IC50 (Histone deacetylase 3): 10400 nM
- IC50 (Histone deacetylase 8): 9020 nM
- IC50 (HCT-116): 510 nM
- IC50 (A549): 1910 nM
- IC50 (MCF7): 910 nM
- IC50 (B16-F10 [1]): 2310 nM
- IC50 [2]: 920 nM
- IC50 [3]: 1080 nM
- Activity (B16-F10 [4]): 57.09%
- Activity (B16-F10 [5]): 78.98%
- Activity (B16-F10 [6]): 87.91%
- Activity (Jurkat [7]): Active
- Activity (Jurkat [8]): Dose-Dependent Effect
- Activity (Jurkat [9]): inactive
- Activity (Jurkat [10]): Active
- Activity (Jurkat [11]): Dose-Dependent Effect
- Activity (B16-F10 [12]): inactive
- Activity (Jurkat [13]): inactive
- Activity (B16-F10 [14]): Active
- Activity (B16-F10 [15]): Active
- Activity (Jurkat [16]): Active
- Activity (Jurkat [17]): Active
- Activity (Jurkat [18]): Active
- Activity (Jurkat [19]): Active
- Activity (B16-F10 [20]): Active
- Activity (B16-F10 [21]): Active

SMILES: COc1ccc(-c2ncc(C(=O)NCCCCCCC(=O)NO)[nH]2)c(OC)c1
- IC50 (Histone deacetylase): 80 nM
- IC50 (Histone deacetylase 1): 4660 nM
- IC50 (Histone deacetylase 3): 7120 nM
- IC50 (Histone deacetylase 8): 14600 nM
- IC50 (HCT-116): 1170 nM
- IC50 (A549): 2220 nM
- IC50 (MCF7): 2680 nM
- IC50 (B16-F10 [1]): 5260 nM
- IC50 [2]: 1280 nM
- IC50 [3]: 1520 nM
- Activity (B16-F10 [4]): 16.58%
- Activity (B16-F10 [5]): 38.71%
- Activity (B16-F10 [6]): 57.73%
- Activity (Jurkat [7]): Active
- Activity (Jurkat [8]): Dose-Dependent Effect
- Activity (Jurkat [9]): inactive
- Activity (Jurkat [10]): Active
- Activity (Jurkat [11]): Dose-Dependent Effect
- Activity (B16-F10 [12]): inactive
- Activity (Jurkat [13]): inactive
- Activity (B16-F10 [14]): Active
- Activity (B16-F10 [15]): Active
- Activity (Jurkat [16]): Active
- Activity (Jurkat [17]): Active
- Activity (Jurkat [18]): Active
- Activity (Jurkat [19]): Active
- Activity (B16-F10 [20]): Active
- Activity (B16-F10 [21]): Active
